Measurements from PubChem BioAssay (NCI).
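Following 48 hours of exposure in 96-well plates, responses at five concentrations were used to interpolate endpoints linearly. Definition used: TGI = concentration required for complete inhibition of growth.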

Columns and labels:
Test in all cases: NCI-60 cell line screen, 48 h
[1] = tested on: MCF7 breast
[2] = tested on: KM12 colon
[3] = tested on: MDA-MB-435
[4] = tested on: HCC-2998 colon
[5] = tested on: IGROV1 ovarian
[6] = tested on: COLO 205 colon
[7] = tested on: OVCAR-4 ovarian
[8] = tested on: HCT-116 colon
[9] = tested on: RXF 393 renal
[10] = tested on: HL-60(TB) leukemia
[11] = tested on: NCI-H460 lung
[12] = tested on: SR leukemia
[13] = tested on: NCI-H23 lung
[14] = tested on: DU-145 prostate
[15] = tested on: SNB-75 CNS
[16] = tested on: SNB-19 CNS
[17] = tested on: EKVX NSCLC
[18] = tested on: SW-620 colon
[19] = tested on: UO-31 renal
[20] = tested on: 786-0 renal
[21] = tested on: NCI-H226 lung
[22] = tested on: T-47D breast
[23] = tested on: HOP-92 NSCLC
[24] = tested on: NCI-H522 lung
[25] = tested on: ACHN renal
[26] = tested on: HS 578T breast
[27] = tested on: PC-3 prostate
[28] = tested on: OVCAR-3 ovarian
[29] = tested on: HT29 colon
[30] = tested on: TK-10 renal
[31] = tested on: SF-539 CNS
[32] = tested on: NCI/ADR-RES ovarian
[33] = tested on: LOX IMVI melanoma
[34] = tested on: SF-295 CNS
[35] = tested on: RPMI-8226 leukemia
[36] = tested on: SF-268 CNS
[37] = tested on: MALME-3M melanoma
[38] = tested on: MDA-MB-231 breast
[39] = tested on: UACC-62 melanoma
[40] = tested on: M14 melanoma
[41] = tested on: SK-MEL-2 melanoma
[42] = tested on: OVCAR-8 ovarian
[43] = tested on: MDA-N
[44] = tested on: BT-549 breast
[45] = tested on: HCT-15 colon
[46] = tested on: CAKI-1 renal
[47] = tested on: OVCAR-5 ovarian
[48] = tested on: U251 CNS
[49] = tested on: SN12C renal
[50] = tested on: MOLT-4 leukemia
[51] = tested on: UACC-257 melanoma
[52] = tested on: SK-MEL-28 melanoma
[53] = tested on: K-562 leukemia
[54] = tested on: A498 renal
[55] = tested on: SK-OV-3 ovarian
[56] = tested on: SK-MEL-5 melanoma
[57] = tested on: HOP-62 NSCLC
[58] = tested on: CCRF-CEM leukemia
[59] = tested on: A549 NSCLC
[60] = tested on: HOP-18 NSCLC
[61] = tested on: DMS 273 small cell lung
[62] = tested on: LXFL 529 NSCLC
[63] = tested on: DLD-1 colon
[64] = tested on: M19-MEL melanoma

In the case of COc1ccc(-c2csc(=Nc3ccccc3)n2CC(O)c2ccc([N+](=O)[O-])cc2)cc1 (configuration not stated), the TGI [1] is reported as > 100 µM, the TGI [2] is reported as > 100 µM and the TGI [3] is reported as > 100 µM. The TGI [4] was > 100 µM, the TGI [5] was > 100 µM and the TGI [6] was > 100 µM. The TGI [7] was > 100 µM, the TGI [8] was > 100 µM and the TGI [9] was > 100 µM. For the same compound, the TGI [10] was > 100 µM, the TGI [11] was > 100 µM and the TGI [12] was > 100 µM. For the same compound, the TGI [13] was > 100 µM, the TGI [14] was > 100 µM and the TGI [15] was > 100 µM. For the same compound, the TGI [16] was > 100 µM, the TGI [17] was > 100 µM and the TGI [18] was > 100 µM. For the same compound, the TGI [19] was > 100 µM, the TGI [20] was > 100 µM and the TGI [21] was > 100 µM. For the same compound, the TGI [22] was > 100 µM, the TGI [23] was > 100 µM and the TGI [24] was > 100 µM. For the same compound, the TGI [25] was > 100 µM, the TGI [26] was > 100 µM and the TGI [27] was > 100 µM. The TGI [28] was > 100 µM, the TGI [29] was > 100 µM and the TGI [30] was > 100 µM. The TGI [31] was > 100 µM, the TGI [32] was > 100 µM and the TGI [33] was > 100 µM. For the same compound, the TGI [34] was > 100 µM, the TGI [35] was > 100 µM and the TGI [36] was > 100 µM. For the same compound, the TGI [37] was > 100 µM, the TGI [38] was > 100 µM and the TGI [39] was > 100 µM. The TGI [40] was > 100 µM, the TGI [41] was > 100 µM and the TGI [42] was > 100 µM. The TGI [43] was > 100 µM, the TGI [44] was > 100 µM and the TGI [45] was > 100 µM. The TGI [46] was > 100 µM, the TGI [47] was > 100 µM and the TGI [48] was > 100 µM. For the same compound, the TGI [49] was > 100 µM, the TGI [50] was > 100 µM and the TGI [51] was > 100 µM. For the same compound, the TGI [52] was > 100 µM, the TGI [53] was > 100 µM and the TGI [54] was > 100 µM. For the same compound, the TGI [55] was > 100 µM, the TGI [56] was > 100 µM and the TGI [57] was > 100 µM. The TGI [58] was > 100 µM and the TGI [59] was > 100 µM.

Work on N#Cc1c(-c2ccco2)cc(-c2ccc(NCc3nc4ccccc4[nH]3)cc2)nc1N yielded a TGI [60] of 77.9 µM, a TGI [2] of 38 µM and a TGI [4] of 54.7 µM. For the same compound, the TGI [5] was > 100 µM, the TGI [6] was 47.9 µM and the TGI [7] was 66.3 µM. It also gave a TGI [8] of 45.9 µM, a TGI [9] of 68.5 µM and a TGI [10] of 47.3 µM. It also gave a TGI [11] of 43.3 µM, a TGI [61] of 38.5 µM and a TGI [13] of 48.8 µM. The TGI [15] was 91.6 µM, the TGI [16] was > 100 µM and the TGI [18] was > 100 µM. The TGI [19] was 58.7 µM, the TGI [20] was 87.9 µM and the TGI [62] was 42 µM. For the same compound, the TGI [23] was 67.4 µM, the TGI [24] was 55.5 µM and the TGI [63] was > 100 µM. The TGI [25] was > 100 µM, the TGI [64] was 63.4 µM and the TGI [28] was 41.8 µM. The TGI [29] was 91.7 µM, the TGI [30] was 86.2 µM and the TGI [31] was 47.6 µM. The TGI [33] was 32.7 µM, the TGI [34] was 52.3 µM and the TGI [35] was 62 µM. For the same compound, the TGI [36] was > 100 µM, the TGI [37] was 51.5 µM and the TGI [39] was 45.1 µM. For the same compound, the TGI [40] was 35.8 µM, the TGI [41] was 40.3 µM and the TGI [42] was 46.3 µM. For the same compound, the TGI [45] was 69.2 µM, the TGI [46] was > 100 µM and the TGI [47] was > 100 µM. The TGI [48] was > 100 µM, the TGI [49] was 59.6 µM and the TGI [50] was 39.7 µM. For the same compound, the TGI [52] was 67.5 µM, the TGI [53] was 71.7 µM and the TGI [54] was > 100 µM. The TGI [55] was > 100 µM, the TGI [56] was 29.9 µM and the TGI [57] was 62.8 µM. For the same compound, the TGI [58] was > 100 µM and the TGI [59] was 93.8 µM.

With C[C@]12CC[C@@H]3c4cc(OCC(F)(F)F)c(O)cc4C(=O)C[C@H]3[C@@H]1CC[C@@H]2O the TGI [1] was > 100 µM, the TGI [2] was > 64.4 µM and the TGI [3] was > 25.4 µM. For the same compound, the TGI [4] was 38.7 µM, the TGI [5] was > 100 µM and the TGI [6] was > 84.5 µM. The TGI [7] was > 100 µM, the TGI [8] was > 100 µM and the TGI [9] was 58.5 µM. For the same compound, the TGI [10] was 4.68 µM, the TGI [11] was > 100 µM and the TGI [12] was > 100 µM. The TGI [13] was > 100 µM, the TGI [14] was > 100 µM and the TGI [15] was 65.7 µM. The TGI [16] was > 79.5 µM, the TGI [17] was > 100 µM and the TGI [18] was > 100 µM. For the same compound, the TGI [19] was > 100 µM, the TGI [20] was > 100 µM and the TGI [21] was > 100 µM. For the same compound, the TGI [22] was > 100 µM, the TGI [23] was > 100 µM and the TGI [24] was > 100 µM. For the same compound, the TGI [25] was > 100 µM, the TGI [26] was 43.9 µM and the TGI [27] was > 67.7 µM. For the same compound, the TGI [28] was 7.59 µM, the TGI [29] was 38.4 µM and the TGI [30] was > 100 µM. For the same compound, the TGI [31] was 22.6 µM, the TGI [32] was > 31.3 µM and the TGI [33] was > 100 µM. The TGI [34] was 15.4 µM, the TGI [35] was > 100 µM and the TGI [36] was > 100 µM. For the same compound, the TGI [37] was 88.1 µM, the TGI [38] was > 66.4 µM and the TGI [39] was > 100 µM. For the same compound, the TGI [40] was > 41.7 µM, the TGI [41] was > 26.1 µM and the TGI [42] was > 84.7 µM. For the same compound, the TGI [43] was 5.69 µM, the TGI [44] was > 100 µM and the TGI [45] was > 100 µM. For the same compound, the TGI [46] was > 100 µM, the TGI [47] was > 85.3 µM and the TGI [48] was > 38.8 µM. The TGI [49] was > 100 µM, the TGI [50] was > 100 µM and the TGI [51] was > 100 µM. The TGI [52] was > 52.3 µM, the TGI [53] was > 100 µM and the TGI [54] was > 100 µM. For the same compound, the TGI [55] was 47.5 µM, the TGI [56] was > 82.8 µM and the TGI [57] was > 100 µM. For the same compound, the TGI [58] was > 66.3 µM and the TGI [59] was > 100 µM.

For C/C(=N\NC(=O)c1ccncc1)c1ccc2ccccc2c1O, the TGI [1] was 14 µM, the TGI [2] was 60.8 µM and the TGI [3] was > 100 µM. It also gave a TGI [4] of 53.8 µM, a TGI [5] of 99.3 µM and a TGI [6] of 11.5 µM. The TGI [7] was > 65.2 µM, the TGI [8] was 10.5 µM and the TGI [9] was > 79.6 µM. For the same compound, the TGI [10] was 10.3 µM, the TGI [11] was 20.4 µM and the TGI [12] was 32 µM. For the same compound, the TGI [13] was > 51 µM, the TGI [14] was 38.2 µM and the TGI [15] was > 43.8 µM. The TGI [16] was > 100 µM, the TGI [17] was > 100 µM and the TGI [18] was > 100 µM. It also gave a TGI [19] of 38.5 µM, a TGI [20] of 48.4 µM and a TGI [21] of 12.1 µM. For the same compound, the TGI [22] was 14.5 µM, the TGI [23] was > 100 µM and the TGI [24] was 12.4 µM. The TGI [25] was > 100 µM, the TGI [26] was 98.1 µM and the TGI [27] was 96.9 µM. The TGI [28] was 3.59 µM, the TGI [29] was > 58.6 µM and the TGI [30] was > 100 µM. The TGI [31] was 23.2 µM, the TGI [32] was > 54.3 µM and the TGI [33] was > 100 µM. The TGI [34] was 20.7 µM, the TGI [35] was > 64.4 µM and the TGI [36] was 40.8 µM. For the same compound, the TGI [37] was 43.2 µM, the TGI [38] was > 91 µM and the TGI [39] was 21.6 µM. For the same compound, the TGI [40] was 38.2 µM, the TGI [41] was > 100 µM and the TGI [42] was 35.3 µM. For the same compound, the TGI [43] was > 100 µM, the TGI [44] was > 100 µM and the TGI [45] was > 100 µM. For the same compound, the TGI [46] was > 84.5 µM, the TGI [47] was > 100 µM and the TGI [48] was > 62.2 µM. For the same compound, the TGI [49] was 40.9 µM, the TGI [50] was 40.3 µM and the TGI [51] was 24.6 µM. The TGI [52] was > 100 µM, the TGI [53] was > 100 µM and the TGI [54] was 53.3 µM. For the same compound, the TGI [55] was > 60.7 µM, the TGI [56] was 14.1 µM and the TGI [57] was > 72.7 µM. For the same compound, the TGI [58] was > 100 µM and the TGI [59] was > 100 µM.
